The results in this text go back to paper PMC12348844, “Anti-Trypanosoma cruzi Potential of New Pyrazole-Imidazoline Derivatives” (Molecules, 2025).

In general, IC90 refers to the concentration at which the effect reaches the 90% level. As a reminder, the CC50 is the concentration at which the toxic effect on the cells reaches its halfway point.

Where two headings read alike, the source gives them in different places.

Data set [1] deals with intracellular amastigotes of T. cruzi. Description: Drug combination with Bz, fixed-ratio isobologram, intracellular amastigotes. The data set is classed as cell-based. Conditions: Trypanosoma cruzi; proportion 1k:Bz 0:5, 72 h; read-out: IC50 (Mean ± DP) in combination assay. The method, then: The isobologram approach assessed the interaction between Bz and the promising candidate in intracellular amastigotes of T. cruzi. Vero cell cultures infected with T. cruzi (Dm28c-Luc) were treated for 72 h with various concentrations of combinations of Bz and the promising candidate, specifically at ratios of 5:0; 4:1; 3:2; 2:3; 1:4 and 0:5. The maximum concentration of each compound was established based on their IC50 values, ensuring both reached the fourth dilution in the serial dilution setup (1:3), culminating in a total of seven dilutions. After 72 h of treatment, parasite viability was measured by luminescence in a Glomax Multi-Detection plate reader (Promega Corporation, Madison, WI, USA) after incubation with luciferin. The IC50 values of each treatment combination were calculated individually, and the fractional inhibitory concentration index (FICI) was derived using the formula FICI = IC50 of the combination/IC50 of the compound alone. The overall FICI (ΣFICI) was calculated by summing the FICIs for both compounds in each combination group, while the average ΣFICI (xΣFICI) represented the overall mean across all combination groups. The xΣFICI values were then employed to classify the interaction as synergistic (xΣFICI ≤ 0.5), additive (0.5 < xΣFICI < 4), or antagonistic (xΣFICI > 4). […]

Data set [2] has as its system T. cruzi Dm28c-Luc trypomastigotes. Description: Anti-T. cruzi in vitro assay, trypomastigotes (luminescence). The settings on record: Trypanosoma cruzi, 24 h, mean ± SD. The data set is classed as cell-based. The method, then: (§1) The genetically modified Trypanosoma cruzi, clone Dm28c (TcI), expressing luciferase (Dm28c-Luc), was kindly provided by Dr. Cristina Henriques from Oswaldo Cruz Institute—Fiocruz. The parasites were maintained using Vero cell cultures in RPMI 1640 medium enriched with 10% FBS. At 4 days post-infection (dpi), the trypomastigotes released into the culture supernatant were harvested, subjected to centrifugation at 800× g for 20 min at 4 °C, and quantified with a Neubauer chamber. The isolated trypomastigotes were subsequently used for phenotypic screening, drug efficacy assessments employing a 3D cardiac model, washout experiments to evaluate reversibility, drug combination studies, and enzymatic assays.
Drug susceptibility assays were performed on T. cruzi Dm28c-Luc, a genetically engineered parasite expressing luciferase. The drug screening used both trypomastigotes and intracellular amastigotes. Trypomastigotes (1 × 10^6 parasites/well) were added to white 96-well plates with clear bottoms. […] The luminescence was measured using a Glomax Multi-Detection plate reader (Promega Corporation, Madison, WI, USA).

The next data set deals with T. cruzi (Dm28c-Luc). Description: Reversibility (washout) assay in T. cruzi-infected Vero cells. The data set is classed as cell-based, Trypanosoma cruzi. The method, then: After treatment, the cultures were thoroughly washed, and parasite recrudescence was evaluated over an extended period of 10 days in RPMI medium supplemented with 10% fetal bovine serum (FBS). Culture supernatants were collected at intervals, and the luminescence signal indicative of trypomastigote release was assessed using a Glomax Multi-Detection plate reader (Promega Corporation, Madison, WI, USA) following the addition of luciferin every 2–3 days. At the experiment’s conclusion, the infection profile of the monolayer was also examined. Cells were fixed with PFA for 20 min at 4 °C, then stained with DAPI for microscopy analysis. Luminescence data were expressed in arbitrary luminescent units (A.L.U), and fluorescence images were acquired using the ImageXpress Micro XLS high-content screening (HCS) system (Molecular Devices, Sunnyvale, CA, USA).

Data set [3] has as its system T. cruzi Dm28c-Luc intracellular amastigotes. The experiment in a line: Anti-T. cruzi in vitro assay, intracellular amastigotes in Vero cells (luminescence). The data set is classed as cell-based, Trypanosoma cruzi. Conditions: Trypanosoma cruzi. The method, then: as §1
To evaluate the effect of pyrazole-imidazoline derivatives against intracellular amastigotes, Vero cells (1.5 × 10^4 cells/well) were cultured in a white 96-well plate with a clear bottom and subsequently infected with T. cruzi Dm28c-Luc at a 10:1 parasite-to-host cell ratio for 24 h. […] Parasite viability was measured by luminescence following the addition of luciferin (300 µg/mL). Background measurements (non-infected cultures incubated with luciferin, as well as luciferin-only controls) were performed to ensure the signal specifically originates from viable parasites. The IC50 and IC90 values, denoting the concentrations that achieve 50% and 90% reductions in viable parasites, respectively, were calculated using GraphPad Prism 8.2.1 software. Additionally, the selectivity index (SI) was calculated as the cytotoxic concentration (CC50) ratio in mammalian cells to the IC50 against T. cruzi, providing insight into the therapeutic window. Potency against intracellular amastigotes was evaluated using the formula 6—Log10 (IC50).

The nature of data set [4]: Cytotoxicity assay, Vero cells (CellTiter-Glo). It counts as cell-based. The settings on record: African green monkey, mean ± SD. The method, then: Vero cells, obtained from the Rio de Janeiro Cell Bank (BCRT code 0245) and maintained through weekly subculturing with a dissociation solution containing 0.25% trypsin-EDTA, initiated once the monolayer reached an 80–100% confluence. Following harvesting, the cells were washed and resuspended in RPMI 1640 medium enriched with 10% fetal bovine serum (FBS). Cultures were maintained at 37 °C in a 5% CO2-humidified incubator. These cultures were used for drug screening assays and for producing culture-derived trypomastigotes of T. cruzi.
Cytotoxicity assays were performed using Vero cells, which were seeded at a density of 1.5 × 10^4 cells per well in white 96-well plates with clear bottoms. Following a 24 h adhesion period, the cultures were incubated at 37 °C in a 5% CO2 atmosphere. […] After 72 h of incubation, cell viability was assessed by adding CellTiter-Glo reagent (Promega Corporation, Madison, WI, USA), which induces cell lysis and reacts with the released ATP to produce luminescence. The resulting luminescence was measured using a Glomax Multi-Detection plate reader (Promega Corporation, Madison, WI, USA). The half-maximal inhibitory concentration (CC50) for cell viability was then calculated using GraphPad Prism software version 8.2.1.

Turning to `O=C(Cn1ccnc1[N+](=O)[O-])NCc1ccccc1` [Bz, Benznidazole, reference compound], the IC50 in data set [1] is 2.3 ± 0.07 µM; in data set [2] it was 20.5 ± 1.8 µM; in data set [3] (Vero, intracellular amastigotes, 6 − Log10(IC50), read-out: pIC50 (potency) (converted)) it was 2.51 µM; in data set [3] (72 h, Dm28c-Luc in Vero cells, mean ± SD, read-out: Intracellular Amastigotes IC50) it was 2.2 ± 0.4 µM. For the same molecule, the IC90 in data set [2] is more than 100 µM; in data set [3] (72 h, Dm28c-Luc in Vero cells, mean ± SD), 10.4 ± 0.5 µM. Further, the “reduction of parasite load of cell monolayer at 21 dpi” value in the data set on T. cruzi (Dm28c-Luc) (100 µM, 10 days treatment + 10 days washout) is on record as 98.4%. Also, the “parasite load of cell monolayer at 21 dpi (luminescence)” value in the data set with T. cruzi (Dm28c-Luc) (100 µM, untreated 5 × 10^5 A.L.U) is recorded as 8 × 10^3 A.L.U. Besides, in the data set with T. cruzi (Dm28c-Luc) (10 days treatment, tested conditions), the “sterility of cultures in reversibility assay” value is recorded as “failed to achieve sterility”. Further, the cytotoxic concentration (CC50) at 72 h in data set [4] is more than 500 µM.
